Measurements from patent US8841325B2, “Immunomodulatory compounds for the restoration of vitamin D sensitivity in vitamin D resistant tumor cells” (Celgene Corporation, priority 2009, dated 2014).

Columns and labels:
Type in all cases: cell-based
[1] = system: HBL-100 cells; experiment: BCL-2 expression by immunoblotting, HBL-100; details: 1 μM lenalidomide and 100 nM 1,25-D3 alone or in combination, 6 days, FIG. 15
Description: It has been shown in this paper that BCL-2 inhibition of expression seems to be a key event for the restoration of a sensitive vitamin D sensitive phenotype in MDA-MB-231. […] Cells were also treated with 0.1% DMSO as a control. Whole cells extracts were prepared and analysed by immuoblotting BCL-2 antibody. β-actin was used as a loading control.
More particularly, FIG. 15 illustrates the effects of co-treatment lenalidomide/1, 25-D3 on BCL-2 expression in MCF-7VDR and HBL-100 cells. MCF-7/VDR and HBL-100 cells were treated for up to 6 days with 1 μM lenalidomide and 100 nM 1, 25-D3 alone or in combination. Cells were also treated with 0.1% DMSO a control. Whole proteins were extracted and probes for BCL-2. β-actin was used as a loading control. Representative blots for the three experiments are shown.

[2] = system: MDA-MB-231 cells; experiment: Cell viability by neutral red assay, MDA-MB-231; details: for effect on cell viability: up to 6 days
Description: (§1) Cells were seeded in 24 wells plates at a density of 10^4 cells per well and allowed to adhere for 24 hours. […] The drug was renewed every 2 days. Cell viability was then determined by neutral red assay, measuring absorbance at 550 nm.
(§2) After 6 days treatment, cells were seeded into 24 well plates at a density of 1×10^4 cells/wells. After 24 h, cells were treated with reagents or vehicle for up to six days. At the end of the incubation period, medium was removed and cells were incubated with neutral red solution (40 μg/ml in phenol red and serum free DMEM) for 2 h at 37° C. After removal of the neutral red solution, wells were rinsed once with 1 ml 4% formal saline containing 0.5% CaCl2. Plates were inverted on paper towel to drain and 200 μl of elution fluid (1% acetic acid in 50% ethanol) was added. Following incubation at room temperature for 30 min with gentle shaking, absorbance at 550 nm was determined
To accomplish this, cells were treated for up to 6 days with different concentrations of a BCL-2 inhibitor, ABT-263 ([…]). Non-treated cells were used as a control. After 6 days of treatment, cell viability was measured by neutral red assay (FIG. 16). In the three cell lines, BCL-2 inhibition leads to cell death. The IC50 is almost equivalent in all cell lines (1 μM+/−0.2 μM).
More particularly, FIG. 16 illustrates the effects of BCL-2 inhibition on MCF-7VD^R and HBL-100 viability. MDA-MB-231, MCF-7/VD^R and HBL-100 cells were treated for up to 6 days with different concentrations of ABT-263 (0.2 up to 20 μM). Non-treated cells were used as a control. After 6 days of treatment, cell viability was measured by neutral red assay. Results are mean of three independent experiments (each made in quadruplicate).

[3] = system: MDA-MB-231 cells; experiment: PARP cleavage assay (Western blot)
Description: Cells were plated in 75 cm^2 flasks and cultured for 6 days with 1 μl/mL DMSO (control) or 1 μM 1-oxo-2-(2,6-dioxopiperidin-3-yl)-4-aminoisoindoline and 100 nM 1,25 D3, each alone or in combination. For each time point, medium was removed and cells were washed with ice-cold PBS. Cells were then lysed with RIPA buffer (1% NP40, 0.5% sodium deoxycholate, 0.1% SDS, PBS) and the lysate was centrifuged at 13000 rpm for 20 minutes at 4° C. The supernatant was collected and an aliquot taken for measuring protein concentration. The protein estimation was determined for each lysate using the Bio-Rad DC Protein Assay Kit according to the manufacturer's instructions. The protein extract was mixed with SDS (1/4), sonicated 10 seconds, and protein concentration was determined by Bradford assay.
SDS-polyacrylamide gel electrophoresis (SDS-PAGE) was run on a Mini Trans-Blot Module apparatus (Bio-Rad). The percentage of polyacrylamide/bis-acrylamide in the resolving gel in this experiment was 12% v/v. The following reagents were used for stacking gel: 0.67 mL 30% acrylamide/bis-acrylamide; 2.7 mL H2O; 0.5 mL 1M trizma; 0.01 mL 10% ammonium persulfate; and 0.04 mL SDS. The following reagents were used for resolving gel: 3.3 mL 30% acrylamide/bis-acrylamide; 4 mL H2O; 2.5 mL 1M trizma; 0.1 mL 10% ammonium persulfate; and 0.1 mL 10% SDS.
Once the resolving gel was prepared, polymerization was initiated by addition of 10 μl N′,N′,N′,N′-teramethylethylene-diamine (TEMED). Lysates were boiled for 5 minutes and chilled on ice then loaded into the stacking gel, with volumes adjusted so that equal amounts of protein were loaded. Rainbow colored markers (Sigma Aldrich) were also added in one well to monitor the electrophoretic solution. Electrophoresis was performed at 40 mA constant current for 1 to 2 hours in running buffer (10×25 mM trizma, 192 mM glycine, 0.1% SDS).
For western blotting, the proteins were transferred from the gel onto Hybond C-Super nitrocellulose membrane (Amersham International, U.K.) in a Mini Trans-Blot apparatus (Bio-Rad) according to the manufacturer's instructions. Transfer was performed at 100 V for 1.5 to 2 hours in transfer buffer (25 mM Tris base, 192 mM glycine, 20% methanol, pH 8.2). The nitrocellulose was blocked after 1 hour with milk solution (PBS 1×, 1% Tween 20, 1% Triton X100, 5% fat-free milk). The membrane was then stained for 1 hour with the primary antibodies Total-PARP and Cleaved-PARP in the milk solution. The membrane was washed with milk solution and stained with secondary antibody (anti-rabbit from Sigma Aldrich) for 1 hour. […] The membrane was then wrapper in cling-film and placed in a cassette and, in the dark, pieces of autography film (GRI) were placed over it and left for the desired time before being put through a developer.
Cells were lysed in RIPA buffer containing 1% NP40, 0.5% sodium deoxycholate, 0.1% SDS, PBS. Equal amounts of protein (20 μg per lane) were subjected to SDS-PAGE and transferred to nitrocellulose membranes. Membranes were blocked with 5% milk in 0.05% Tween-20/TBS and then incubated with the first antibody in 0.5% milk overnight. Membranes were then incubated with the secondary anti-mouse or anti-rabbit horseradish peroxidase conjugated antibody. Bands were visualised using the enhanced chemiluminescence Western blotting detection system (ECL, Amersham, N.J., USA). Densitometric analysis was performed using Adobe Photoshop CS2. Anti-cleaved PARP and anti-total PARP antibodies (New England biolab, Cell Signalling), were used at a dilution of 1/1000 and anti-rabbit (AbCam, UK), at a dilution of 1/5000.
Cells were also treated with 0.1% DMSO as a control. […] Cells treated with 0.1% DMSO were used as a control (day 0). Cell lysates were probed for cleaved-PARP(C-PARP) and total PARP (T-PARP). Data shown are representative of three identical experiments.

[4] = system: MCF-12A cells; experiment: Cell viability by neutral red assay, MCF-12A
Description: as §1, §2

[5] = single agent: 1 μM lenalidomide or 100 nM 1,25 D3 alone, up to 6 days
[6] = 1,25 D3 0-100 nM, 7 days, FIG. 1

| SMILES | effects on BCL-2 expression [1] | effect on cell viability ([2]; single agent, Thalidomide 0.01-100 μM, CC-4047 and lenalidomide 0.001-10 μM, FIG. 6A) | PARP cleavage ([3]; 1 μM lenalidomide in combination with 100 nM 1,25 D3, up to 6 days) | PARP cleavage ([3]; 1 μM lenalidomide in combination with 100 nM 1,25 D3, up to 6 days, listed as 1-oxo-2-(2,6-dioxopiperidin-3-yl)-4-aminoisoindoline) | PARP cleavage [3, 5] | PARP cleavage ([3]; single agent: 1 μM lenalidomide or 100 nM 1,25 D3 alone, up to 6 days, listed as 1-oxo-2-(2,6-dioxopiperidin-3-yl)-4-aminoisoindoline) | effect on cell viability ([4]; single agent, up to 6 days, Thalidomide 0.01-100 μM, CC-4047 and lenalidomide 0.001-10 μM, FIG. 6A) | effect on cell viability ([2]; 100 nM 1,25-D3 or 1 μM IMiD alone) | sensitivity of cell viability to vitamin D agent treatment [2, 6] | PARP cleavage ([3]; single agent: 1 μM lenalidomide or 100 nM 1,25 D3 alone, up to 6 days, listed as vitamin D) | inhibition of viability ([4]; 100 nM 1,25-D3 alone, up to 6 days, FIG. 7A) | sensitivity of cell viability to vitamin D agent treatment [4, 6] |
| --- | --- | --- | --- | --- | --- | --- | --- | --- | --- | --- | --- | --- |
| Nc1cccc2c1CN(C1CCC(=O)NC1=O)C2=O (centres unmarked) [Lenalidomide, 1-oxo-2-(2,6-dioxopiperidin-3-yl)-4-aminoisoindoline] | no effects | do not Affect | starts to be cleaved after 2 days of treatment | significant level of cleaved PARP | no effect | no PARP cleavage | do not Affect |  |  |  |  |  |
| C=C1/C(=C\C=C2/CCC[C@]3(C)[C@@H]([C@H](C)CCCC(C)(C)O)CC[C@@H]23)C[C@@H](O)C[C@@H]1O [1,25-D3, 1α,25-dihydroxyvitamin D3] | no effects |  |  |  | no effect |  |  | no effect | resistant | no PARP cleavage | 35% | showed sensitivity |
